Measurements reported in PubChem BioAssay AID190 (DTP/NCI, 2004).
Toxic doses and inconclusive results are not listed. The calls were made as follows: active = survival T/C of 150% or more; inactive = T/C below 125% in these data.

System: AKR/Lw mice, AKR lymphoma ip, median survival T/C
Assay: NCI In Vivo Anticancer Drug Screen. Data for tumor model Lymphoma AKR (Transplanted) (intraperitoneal) in AKR/Lw mice
Settings: endpoint: median survival time, higher = longer survival
Procedure: The antitumor activity of compounds was measured in mice bearing transplantable tumors. Survival or tumor size were measured and the results are expressed as the measurement made in the treated group (T) divided by the measurement made in the vehicle treated control group (C). The tumor model used in this assay is Lymphoma AKR (Transplanted) (intraperitoneal) in AKR/Lw mice

[1] = dose: 100.0 mg/kg/injection, schedule: Q01DX001 (ip), vehicle: Klucel (hydroxypropylcellulose) (HPC)
[2] = dose: 100.0 mg/kg/injection, schedule: Q04DX003 (ip), vehicle: Klucel (hydroxypropylcellulose) (HPC)
[3] = dose: 200.0 mg/kg/injection, schedule: Q01DX001 (ip), vehicle: Klucel (hydroxypropylcellulose) (HPC)
[4] = dose: 200.0 mg/kg/injection, schedule: Q04DX003 (ip), vehicle: Klucel (hydroxypropylcellulose) (HPC)
[5] = dose: 400.0 mg/kg/injection, schedule: Q04DX003 (ip), vehicle: Klucel (hydroxypropylcellulose) (HPC)
[6] = dose: 400.0 mg/kg/injection, schedule: Q01DX001 (ip), vehicle: Klucel (hydroxypropylcellulose) (HPC)
[7] = dose: 100.0 mg/kg/injection, schedule: Q01DX001 (ip), vehicle: saline with Tween-80
[8] = dose: 400.0 mg/kg/injection, schedule: Q01DX001 (ip), vehicle: saline with Tween-80
[9] = dose: 100.0 mg/kg/injection, schedule: Q01DX001 (ip), vehicle: saline
[10] = dose: 200.0 mg/kg/injection, schedule: Q01DX001 (ip), vehicle: saline
[11] = dose: 400.0 mg/kg/injection, schedule: Q01DX001 (ip), vehicle: saline
[12] = dose: 12.5 mg/kg/injection, schedule: Q01DX001 (ip), vehicle: saline
[13] = dose: 25.0 mg/kg/injection, schedule: Q01DX001 (ip), vehicle: saline

Measured: T/C

c1cc2cc3c(cc2c2c1CC1c4cc5c(cc4CCN1C2)OCO5)OCO3 (stereo not given)
inactive: [1] 102 % of control | [2] 103 % of control | [3] 97 % of control | [4] 96 % of control | [5] 92 % of control

CCCn1c(=S)[nH]c2ccccc2c1=O
inactive: [1] 103 % of control | [3] 94 % of control | [6] 100 % of control

CC(=O)CC(=O)Nc1ccc([N+](=O)[O-])cc1
inactive: dose: 50.0 mg/kg/injection, schedule: Q01DX001 (ip), vehicle: other 100 % of control | dose: 100.0 mg/kg/injection, schedule: Q01DX001 (ip), vehicle: other 98 % of control | [7] 96 % of control | dose: 200.0 mg/kg/injection, schedule: Q01DX001 (ip), vehicle: other 94 % of control | dose: 400.0 mg/kg/injection, schedule: Q01DX001 (ip), vehicle: other 86 % of control | [8] 92 % of control

O=[N+]([O-])O.[Th]
inactive: [9] 113 % of control | [10] 109 % of control | [11] 104 % of control

NCCCC(=O)O
inactive: [9] 93 % of control | [10] 95 % of control | [11] 95 % of control

S=c1nc(-c2ccccc2)c(-c2ccccc2)n[nH]1
inactive: [7] 106 % of control | dose: 200.0 mg/kg/injection, schedule: Q01DX001 (ip), vehicle: saline with Tween-80 103 % of control | [8] 112 % of control

COc1ccc(CCNC(=S)NCCc2ccc(OC)c(OC)c2)cc1OC
inactive: dose: 25.0 mg/kg/injection, schedule: Q04DX003 (ip), vehicle: Klucel (hydroxypropylcellulose) (HPC) 94 % of control | dose: 50.0 mg/kg/injection, schedule: Q04DX003 (ip), vehicle: Klucel (hydroxypropylcellulose) (HPC) 105 % of control | [1] 88 % of control | [2] 100 % of control | [6] 86 % of control

Cc1ccc(OS(=O)(=O)c2ccc([N+](=O)[O-])cc2)cc1
inactive: dose: 90.0 mg/kg/injection, schedule: Q01DX001 (ip), vehicle: Klucel (hydroxypropylcellulose) (HPC) 102 % of control | dose: 135.0 mg/kg/injection, schedule: Q01DX001 (ip), vehicle: Klucel (hydroxypropylcellulose) (HPC) 102 % of control | [3] 100 % of control | dose: 300.0 mg/kg/injection, schedule: Q01DX001 (ip), vehicle: Klucel (hydroxypropylcellulose) (HPC) 93 % of control

c1ccc2c(c1)CNC2
inactive: [9] 97 % of control | [10] 123 % of control | [11] 111 % of control

CC1(C)CCN1Cc1ccccc1
inactive: [12] 97 % of control | [13] 100 % of control | dose: 50.0 mg/kg/injection, schedule: Q01DX001 (ip), vehicle: saline 100 % of control

c1ccc(CC(Cc2ccccc2)=[N+]2CCCC2)cc1
inactive: [9] 97 % of control | [10] 88 % of control | [11] 88 % of control

CC1(C)CC[N+]1(C)Cc1ccccc1 (stereo not given)
inactive: dose: 6.25 mg/kg/injection, schedule: Q01DX001 (ip), vehicle: saline 97 % of control | [12] 100 % of control | [13] 100 % of control

N=Cc1c(O)[nH]c(=O)[nH]c1=O
inactive: [9] 105 % of control | [2] 100 % of control | [10] 119 % of control | [4] 93 % of control | [11] 88 % of control

CCN(CC)C(N)=S
inactive: [1] 105 % of control | [2] 100 % of control | [3] 105 % of control | [4] 103 % of control | [6] 110 % of control | [5] 107 % of control
